Results from patent publication US10577406B2, “FKBP-L polypeptides and uses in angiogenesis-mediated disorders” (ALMAC DISCOVERY LIMITED, priority 2006, dated 2020).

B1: full length recombinant FKBP-L: recombinant full length his-tagged FKBP-L protein (SEQ ID NO: 1) expressed in BL21 (DE3) (protein, listed as Homo sapiens)
chain: MRGSHHHHHHGMASMTGGQQMGRDLYDDDDKDRWGSMETPPVNTIGEKDTSQPQQEWEKNLRENLDSVIQIRQQPRDPPTETLELEVSPDPASQILEHTQGAEKLVAELEGDSHKSHGSTSQMPEALQASDLWYCPDGSFVKKIVIRGHGLDKPKLGSCCRVLALGFPFGSGPPEGWTELTMGVGPWREETWGELIEKCLESMCQGEEAELQLPGHTGPPVGLTLASFTQGRDSWELETSEKEALAREERARGTELFRAGNPEGAARCYGRALRLLLTLPPPGPPERTVLHANLAACQLLLGQPQLAAQSCDRVLEREPGHLKALYRRGVAQAALGNLEKATADLKKVLAIDPKNRAAQEELGKVVIQGKNQDAGLAQGLRKMFG
modifications: His tag

What was measured:
HMEC-1 = experiment: cell adhesion assay on Matrigel (MTT readout); type: cell-based, Human; conditions: 1 h at 37° C.
Description: A 96-well plate was pre-coated with a thin layer of Matrigel which was allowed to set overnight. The plate wells were blocked with 0.5% BSA for 1 h at 37° C. in a 95% air/5% CO2 incubator. Human microvascular endothelial cells (HMEC-1) were trypsinised and re-suspended in fresh medium and seeded at a density of 20000 cells per well. The plates were placed at 4° C. for 10 min to allow the cells to sediment to the bottom of the wells. The required amount of medium supplemented with the FKBP-L 24mer was added to each well and the plate incubated for 1 h at 37° C. The excess medium and unattached cells were removed and the wells washed three times with sterile PBS. The wells were supplemented with fresh medium and MTT added (5 mgml^−1). The plate was incubated for a further 4 h at 37° C. DMSO was added to each well to solubilise the MTT to formazen and the plate read at 540nm, with the relative absorbance of control wells compared to FBKP-L 24mer-supplemented wells.

DU145 tumours = experiment: prostate cancer xenograft model, daily IP injection; type: in vivo, SCID mice
Description: Du145 (prostate carcinoma) cells were obtained from Cancer Research UK and cultured in RPMI 1640 medium (Invitrogen) supplemented with 10% foetal calf serum. All cell lines were grown as monolayers, incubated at 37° C. under 5% CO2.
24 male immunocompromised (severe combined immunodeficient) mice were used (Harlan). The mice were acclimatised and caged in groups of 5 or less in an isolator. Du145 (prostate carcinoma) cells were cultured as previously described. Sub-confluent cells were harvested and the cell concentration was adjusted to 5×10^7 cells/ml in PBS. The dorsum of each mouse was shaved. After administrating aesthetic, each mouse received intra-dermal injections of 5×10^6 Du145 tumour cells (100 μl) bilaterally into the rear dorsum with a 26-gauge needle. The tumours were allowed to grow until they reached a volume of 150-175 mm^3. The mice were randomly divided into four treatment groups: (a) Control: PBS only (8 mice); (b) 24mer FKBPL peptide: 0.3 mg/kg/day (6 mice); (c) 24mer FKBPL peptide: 3×10^−3 mg/kg/day (6 mice); and (d) 24mer FKBPL peptide: 3×10^−4 mg/kg/day (5 mice).
The mice received daily IP injections (100 μl) of the above treatments. The weight and the tumour volume of each mouse were recorded every 2 days. Tumour volume was calculated as: Length×Breadth×Height×0.5236. Twenty-one days after initial treatment the following animals were sacrificed: 0.3 mg/kg/day 24mer FKBPL (2 mice), 3×10^−3 mg/kg/day (2 mice), 3×10^−4 mg/kg/day (1 mouse) and PBS (2 mice). The tumours were excised and stored in saline formalin solution for future histopathological analysis.

HMEC-1 cells [1] = experiment: MTT assay of cell viability/proliferation; conditions: 24mer 10^−5-10^−10M, 1-57mer 10^−9M and 10^−10M; 24 hours and 48 hours
Description: (§3) An MTT assay was used to measure cell viability/proliferation.
(§4) An MTT assay was used to measure cell viability and/or proliferation. Briefly, HMEC-1 cells were seeded (2.5×10^3) in 96 well plates and allowed to attach for 5 h. The cells were treated with FKBP-L 24mer (SEQ ID NO: 10) (10^−5-10^−10M), 1-57mer (SEQ ID NO: 6) (10^−9M and 10^−10M) or medium (control).
(§5) Post incubation the cells were exposed to a 5 mgml^−1 solution of 3-(-4,5-dimethylthiazol-2-yl) 2,5 diphenyl tetrazolium (MTT) for 4 h. The cells were aspirated and 200 μl of DMSO added to reduce the salt and induce a colour change.

migrating HMEC-1 = experiment: immunohistochemical analysis of cytoskeletal morphology (anti-tubulin, anti-vimentin, confocal microscopy); type: cell-based, Human; conditions: 750 ngml^−1; 5 hours after wounding
Description: Immunohistochemical analysis was carried out to assess cytoskeletal morphology upon treatment with FKBP-L by staining for tubulin and vimentin. HMEC-1 were seeded in four well chamber slides and incubtated overnight until confluent monolayers had formed. Media was removed from each well and the monolayer wounded as previously described. The cells were re-supplemented with medium containing 750 ngml^−1 recombinant His-tagged FKBP-L protein (i.e., SEQ ID NO: 1). The cells were incubated for 5 hours and the chambers were removed from the slides and the cells washed four times in PBS followed by fixation in 4% PBS buffered paraformaldehyde treated with 0.1% Triton X for 20 minutes. The cells were washed three times in PBS, and blocked for 20 minutes in 2% BSA containing 0.1% Triton X. Blocked cells were washed in PBS and incubated with one of the following monoclonal primary antibodies: (A) anti α tubulin (1:500); and (B) anti-vimentin (1:200), for 90 minutes. The cells were washed in PBS followed by a 1 hour incubation with FITC conjugated anti-mouse secondary (1:30) at room temperature. The cells were mounted with Vectashield containing propidium iodide and sealed to prevent dehydration. The slides were covered in tinfoil and stored at 4° C. for analysis using fluorescence confocal microscopy.

[2] = system: MCF-7 (breast tumor cell line; CD44 −ve); experiment: tumor cell migration, wound closure assay, MCF-7; type: cell-based; conditions: MCF-7 (CD44 −ve); 24 h
Description: (§1) The in vitro migration assay used in these studies is a modified version of the method described by Ashton et al. (1999) see supra. PC3 (prostate tumor cell line; CD44 positive; CD44 +ve), MDA231 (breast tumor cell line; CD44 +ve), HT29 (Colorectal tumor cell line; CD44 +ve), MCF-7 (breast tumor cell line; CD44 negative; CD44 −ve) and DU145 (prostate tumor cell line; CD44 −ve) were plated into individual chambers on a glass slide and grown to 90% confluence overnight. The medium was removed and the monolayers wounded. […] The monolayers were incubated for 24 h and then fixed in 4% PBS buffered paraformaldehyde.
(§2) The extent of “wound” closure was blindly assessed microscopically by an independent investigator and quantified using a calibrated eyepiece graticule (1 mm/100 μm graduation) at 20× magnification (Olympus BX 50). The extent of closure in the FKBP-L treated slides was compared to time matched sham treated controls and the % inhibition of wound closure compared to time matched controls calculated.

[3] = system: DU145 (prostate tumor cell line; CD44 −ve); experiment: tumor cell migration, wound closure assay, DU145; type: cell-based, human; conditions: 24 h
Description: as §1, §2

HMEC-1 cells [4] = system: HMEC-1 cells
Description: as §3, §4, §5

Row | Molecule | effect on cell adhesion (HMEC-1) | tumors compared with controls (Kaplan-Meier, time to 3× treatment volume) (DU145 tumours; 0.0003 mg/kg/day, daily IP) | time for tumours to reach 3× their treatment volume (Kaplan-Meier survival) (DU145 tumours; 0.003 mg/kg/day, daily IP) | time for tumours to reach 3× their treatment volume (Kaplan-Meier survival) (DU145 tumours; 0.3 mg/kg/day, daily IP) | tumours that failed to reach their volume tripling within the duration of the experiment (all but the stated number) (DU145 tumours; 0.3 mg/kg/day, daily IP) | growth of DU145 tumours compared to vehicle only treated tumours (DU145 tumours; 0.3 mg/kg/day, daily i.p.) | growth of DU145 tumours compared to vehicle only treated tumours (DU145 tumours; 3×10^−3 mg/kg/day, daily i.p.) | body weight after daily treatment (tolerability) (DU145 tumours; daily IP injection) | tumour appearance (DU145 tumours; most effective doses, daily i.p., a number of tumours) | effect on proliferation of HMEC-1 cells compared to time-matched controls (HMEC-1 cells [1]) | intermediate filament morphology (anti-vimentin staining) (migrating HMEC-1) | microtubule morphology (anti α tubulin staining) (migrating HMEC-1) | effect on tumor cell migration [2] | effect on tumor cell migration [3] | effect on proliferation of HMEC-1 cells compared to time matched controls (HMEC-1 cells [4])
1 | H-QIRQQPRDPPTETLELEVSPDPAS-OH [FKBP-L 24mer] | potent inhibitor of HMEC-1 adhesion | not significantly different from controls | significantly later than controls | significantly later than controls | All but two tumours (of 6) | significantly slowed the growth | significantly slowed the growth | None of the animals lost weight | evidence of a necrotic centre | neither of the peptides had any significant effect |  |  |  |  | 
2 | B1 |  |  |  |  |  |  |  |  |  |  | highly disorganized | little alignment into the wound | not in CD44 −ve tumor cell lines | not in CD44 −ve tumor cell lines | no significant effect
